Article PMC4314633, “Homo-β-amino acid containing MBP(85–99) analogs alleviate experimental autoimmune encephalomyelitis” (Scientific Reports, 2015)
Where a SMILES comes first, the peptide text is derived from it. [ ]: non-standard residue; d: D form. ξ: configuration not given here. ξβ3hE = NC(CCC(=O)O)CC(=O)O; ξβ3hK = NCCCCC(N)CC(=O)O; ξβ3hA = CC(N)CC(=O)O

Assays:
α-chymotrypsin = α-chymotrypsin (Bos taurus, UniProt P00766); assay: Proteolysis assay with chymotrypsin, RP-HPLC; type: in vitro ADME; details: chymotrypsin 0.1 μg/ml, peptide 1 mg/ml, PBS with 0.01% sodium azide, 37°C
Method: Aliquots were drawn at various time points and analyzed by high pressure liquid chromatography (HPLC, Shimadzu). Degradation mixtures were resolved on a C18 column (Phenomenix) using acetonitrile/water with 0.1% trifluroacetic acid (TFA) as a solvent system at a flow rate of 0.4 ml/minute. Analogs un-cleaved in the reaction mixture were quantified in terms of percent peak area. […] Aliquots were drawn and analyzed on a polyacrylamide gel (15%).

[1] = system: experimental autoimmune encephalomyelitis in SJL/J mice; assay: EAE prevention (pre-treatment) setup in SJL/J mice; type: in vivo, mouse; details: prevention: 400 μg in IFA a week prior to immunization with MBP(85–99)
Method: EAE was induced and assessed as described previously. SJL/J (female; 6–8 week old) were injected subcutaneously with 100 μg of MBP(85–99) (two immunizations spaced a week apart) emulsified in complete Freund's adjuvant (CFA). Immunized mice were also given an intra-peritoneal injection of pertussis toxin (200 ng) on day 0 and 2. Severity of clinical disability was scored on a scale of 0 to 5, where, 0, no detectable signs of EAE; 1, complete tail paralysis; 2, wobbly gait; 3, complete hind limb paralysis; 4, complete hind and fore limb paralysis or moribund; 5, dead.

[2] = system: experimental autoimmune encephalomyelitis in SJL/J mice; assay: EAE treatment setup in SJL/J mice; type: in vivo, mouse; details: treatment: 100 μg subcutaneously daily for a week
Method: Animals were perfused intra-cardially with ice cold PBS and 4% paraformaldehyde (PFA) sequentially under deep anesthesia. Thereafter intact spinal cord tissue was dissected out, equilibrated with 30% sucrose and embedded in tissue freezing media (Polyfreez, Polysciences). Subsequently, transverse sections (15 μM thick) were cut through lumbar region in a cryotome (Thermo) and collected in storage buffer (30% glycerol and ethylene glycol in PBS). Sections were retrieved from storage buffer, transferred into citrate buffer (10 mM, pH 6.0) and incubated at 65°C for 30 minutes for antigen retrieval. After 30 minute incubation period, sections were equilibrated with PBS and blocked using 3% bovine serum albumin and 1% normal serum for 2 hours at room temperature. […]

RRMS = details: cited from earlier work
Excerpt: However, therapeutic potencies of such antigen-specific modalities has always been moderate due to their peptidic nature e.g. in the case of GA it is only 20–30 percent. Expectedly, it is their minimal stability in proteolytic milieu and thus inefficient presentation on antigen presenting cells (APCs) which perhaps gets translated into their reduced efficacy.

Q: For `CC(C)[C@H](NC(=O)[C@H](CCCCN)NC(=O)[C@@H]1CCCN1C(=O)[C@H](CCCCN)NC(=O)[C@@H](N)CCC(=O)O)C(=O)N[C@@H](CCC(=O)O)C(=O)N[C@@H](C)C(=O)N[C@@H](Cc1ccc(O)cc1)C(=O)N[C@@H](CCCCN)C(=O)N[C@@H](C)C(=O)N[C@@H](C)C(=O)N[C@@H](C)C(=O)N[C@@H](C)C(=O)N1CCC[C@H]1C(=O)N[C@@H](C)C(=O)O` [J5], which percent hydrolyzed (α-chymotrypsin; in 6 hours, RP-HPLC percent peak area) is on record?
A: > 50%

Q: What does the source list for `CC(CC(=O)O)NC(=O)CC(C)NC(=O)CC(C)NC(=O)CC(C)NC(=O)CC(CCCCN)NC(=O)[C@H](Cc1ccc(O)cc1)NC(=O)[C@H](C)NC(=O)[C@H](CCC(=O)O)NC(=O)[C@@H](NC(=O)[C@H](CCCCN)NC(=O)[C@@H]1CCCN1C(=O)CC(CCCCN)NC(=O)CC(N)CCC(=O)O)C(C)C` (stereo partly drawn) [S18] (H-[ξβ3hE][ξβ3hK]PKVEAY[ξβ3hK][ξβ3hA][ξβ3hA][ξβ3hA][ξβ3hA]-OH)?
A: time up to which detectable in the reaction mixture (α-chymotrypsin; RP-HPLC): ≤ 2 days; percent remaining intact in reaction mixture (α-chymotrypsin; after 12 hours, RP-HPLC percent peak area, n ≥ 3): > 90%

Q: For glatiramer acetate [GA], which “reduction of disease severity (cumulative disability score)” value [1] is on record?
A: 40–50%

Q: And the “duration of therapeutic effect post-treatment” value [2]?
A: ~ 1.7 weeks

Q: And the “reduction of disease severity (cumulative disability score)” value [2]?
A: 30–35%

Q: And the therapeutic potency (RRMS)?
A: 20–30%
